Experiments:
OLAC Wister male rats = experiment: Carrageenin test (rat paw oedema); format: in vivo; settings: for Paw volume ± s.e. / % Inhi-bition: paw volume 3 hours after carrageenin; for Paw volume ± s.e.: control 85.8 ± 9.4
Experimental: 1. Activity in the Carrageenin Test
(§1) Groups of 8 OLAC Wister male rats (140 - 170 g) received the compound of Example 1 orally 1 hour before 0.1 ml of 0.5% λ carrageenin injected into the right hind paw. Paw volumes were measured by mercury displacement 3 hours after carrageenin.

Gastric irritancy test = format: in vivo, rats; settings: rat, in vivo, po
Experimental: (§2) 2. Gastric Irritancy Test
(§3) Groups of OLAC Wistar female rats (130 - 160 g) were fasted overnight (18 hours) before receiving orally the compound of Example 1. 4 Hours later the stomachs were removed and inspected for the presence of erosion of the gastric mucosa.

OLAC Wistar female rats = experiment: Gastric irritancy test; format: in vivo; settings: fasted rats, stomachs inspected 4 hours later
Experimental: as §2, §3

[1] = Therapeutic ratio from the carrageenin test and the gastric irritancy test; format: in vivo, rats; settings: from the two tests (gastric irritancy ED50 / carrageenin ED25)
Experimental: as §1, §3
From these two tests the therapeutic ratio for the compound of formula (EI) was 41.0.

CC(=O)CC1CCn2c(C(=O)c3ccccc3)ccc21 (centres unmarked) [Example 1, 1-(5-Benzoyl-2-3-dihydro-1H-pyrrolazin-1-yl)-propan-2-one]
ED25 (OLAC Wister male rats; Rattus norvegicus, oral, carrageenin paw volume, rats): 0.75 mg/kg
Paw volume ± s.e. (OLAC Wister male rats; oral dose 0.1 mg/kg 1 hour before carrageenin): 92.6 ± 4.6
% Inhi-bition (OLAC Wister male rats; oral dose 0.1 mg/kg): -8.0%
Paw volume ± s.e. (OLAC Wister male rats; oral dose 0.5 mg/kg 1 hour before carrageenin): 73.4 ± 7.8
% Inhi-bition (OLAC Wister male rats; oral dose 0.5 mg/kg): 14.4%
% Inhi-bition (OLAC Wister male rats; oral dose 2.5 mg/kg): 47.4%
TD50 at 4 h (Gastric irritancy test): 30.8 mg/kg
Proportion of rats with gas-tric erosions (OLAC Wistar female rats; oral dose 3.7 mg/kg): 0/8
Proportion of rats with gas-tric erosions (OLAC Wistar female rats; oral dose 11.2 mg/kg): 1/8
Proportion of rats with gas-tric erosions (OLAC Wistar female rats; oral dose 33.6 mg/kg): 4/8
therapeutic ratio [1]: 41.0
